According to ChEMBL document CHEMBL3046454, “Structureactivity relationship study of thiosemicarbazones on an African trypanosome: Trypanosoma brucei brucei” (Med Chem Res, 2013):

Assays:
[1] = Selectivity index, ratio of LC50 for Artemia salina larvae to IC50 for Trypanosoma brucei brucei 427 bloodstream form
[2] = test system: Trypanosoma brucei brucei; test: Trypanocidal activity against Trypanosoma brucei brucei 427 bloodstream form assessed as inhibition of parasite proliferation after 72 hr by Lilit Alamar Blue method; format: functional, organism-based
[3] = Toxicity against Artemia salina (brine shrimp) larvae assessed as mortality after 24 hr; format: organism-based; conditions: in vivo
[4] = Trypanosoma brucei, 427, 72 h, read-out: IC50

Row | Compound | IC50 [2, 4] [µM] | also measured
1 | C/C(=N/NC(=S)Nc1ccccc1)c1ccc(Br)cc1 | 5.19 | Ratio LC50/IC50 [1]: 25.9; LC50 at 24 h [3]: 134 µM
2 | NC(=S)NN=C(c1ccccc1)c1ccccc1 [BENZOPHENONE-THIOSEMICARBAZONE] | 68.3 | –
3 | C=C(C)C1CC=C(C)/C(=N/NC(N)=S)C1 (stereo not drawn) [CARVONE-THIOSEMICARBAZONE] | 39.7 | –
4 | NC(=S)N/N=C\c1ccc(Cl)cc1 | 82.6 | –
5 | COc1ccc(/C(C)=N\NC(N)=S)cc1OC | – | IC50 [2]: Not Active
6 | NC(S)=NN=C(Cc1ccccc1)Cc1ccccc1 | 147 | –
7 | COc1ccc(/C=N\NC(N)=S)cc1 | 259 | –
8 | C/C(=N/NC(N)=S)c1ccccc1 [ACETOPHENONE-THIOSEMICARBAZONE] | 212 | –
9 | C/C(=N/N=C(\N)S)C12CC3CC(CC(C3)C1)C2 | 8.38 | Ratio LC50/IC50 [1]: 14.2; LC50 at 24 h [3]: 119 µM
10 | C/C(=N/NC(N)=S)c1ccc(Br)cc1 | 26.9 | –
11 | Cc1ccc(/C=N\NC(N)=S)cc1 | 124 | –
12 | Cc1ccccc1/C=N\NC(N)=S | 222 | –
13 | C/C(=N/NC(N)=S)c1ccccc1Cl | 199 | –
14 | NC(=S)N/N=C\c1ccccc1Cl | 220 | –
15 | NC(=S)N/N=C\c1ccccc1O | 170 | –
16 | NC(=S)N/N=C\c1ccccc1 [BENZALDEHYDE-THIOSEMICARBAZONE] | 444 | –
17 | CC/C(=N/NC(N)=S)c1ccc(OC)cc1 | 132 | –
18 | C/C(=N/NC(=S)Nc1ccccc1)c1ccc(Cl)cc1 | 3.97 | Ratio LC50/IC50 [1]: 110; LC50 at 24 h [3]: 438 µM
19 | NC(=S)N/N=C\CCc1ccccc1 | 260 | –
20 | C/C(=N/N=C(\N)S)c1ccc(Cl)cc1 [P-CHLOROPHENYL(METHYL)THIOSEMICARBAZONE] | 11.1 | –
21 | NC(=S)N/N=C\C=C\c1ccccc1 | 76.3 | –
22 | NC(=S)N/N=C\c1cccc(Cl)c1 | 164 | –
23 | COc1ccc(/C(C)=N\NC(N)=S)cc1 | 91.1 | –
24 | C/C(=N/NC(N)=S)c1cccc(Br)c1 | 70.4 | –
25 | C/C(=N/NC(=S)Nc1ccccc1)c1ccc2ccccc2c1 | – | IC50 [2]: ND(Insoluble)
26 | NC(=S)N/N=C\c1cccc(Br)c1 | 136 | –
27 | COc1cc(/C(C)=N\NC(N)=S)cc(OC)c1OC | – | IC50 [2]: Not Active
28 | NC(=S)N/N=C\c1cc(Cl)ccc1O | 45.6 | –
29 | CN(C)c1ccc(/C=C/C=N\NC(N)=S)cc1 | 17.7 | –
30 | C/C(=N/NC(N)=S)c1ccc2ccccc2c1 [ACETONAPHTHONE-THIOSEMICARBAZONE] | 9.62 | Ratio LC50/IC50 [1]: 50; LC50 at 24 h [3]: 481 µM
